Source: the NIST ThermoML archive (doi:10.1021/je101178u)
“And” between values parts separate entries of the source, which are not always exact repeats. Equal entries are not always repeated. Numbers after ± are expanded uncertainties.

Conditions: Fluid (supercritical or subcritical phases); for mass density: Buoyancy - hydrostatic balance with magnetic suspension - one sinker; for viscosity: vibrating wire

CCC [propane]
mass density (273.15 K, 40.93 kPa): 0.80164 ± 0.0028 kg/m3 | viscosity (273.15 K, 40.93 kPa): 0.00744 ± 4.5e-05 mPa·s | mass density (273.15 K, 51.05 kPa): 1.002 ± 0.003 kg/m3 | viscosity (273.15 K, 51.05 kPa): 0.007443 ± 4.5e-05 mPa·s | mass density (273.15 K, 100.76 kPa): 1.999 ± 0.0048 kg/m3 | viscosity (273.15 K, 100.76 kPa): 0.007443 ± 4.5e-05 mPa·s | mass density (273.15 K, 149.62 kPa): 3.0011 ± 0.0067 kg/m3 | viscosity (273.15 K, 149.62 kPa): 0.007435 ± 4.5e-05 mPa·s | mass density (273.15 K, 196.97 kPa): 3.9945 ± 0.0087 kg/m3 | viscosity (273.15 K, 196.97 kPa): 0.007431 ± 4.5e-05 mPa·s | mass density (273.15 K, 243.87 kPa): 5.0016 ± 0.011 kg/m3 | viscosity (273.15 K, 243.87 kPa): 0.007424 ± 4.5e-05 mPa·s | mass density (273.15 K, 289.3 kPa): 6.0007 ± 0.013 kg/m3 | viscosity (273.15 K, 289.3 kPa): 0.007419 ± 4.5e-05 mPa·s | mass density (273.15 K, 333.56 kPa): 6.9977 ± 0.015 kg/m3 | viscosity (273.15 K, 333.56 kPa): 0.007415 ± 4.5e-05 mPa·s | mass density (273.15 K, 376.67 kPa): 7.9933 ± 0.017 kg/m3 | viscosity (273.15 K, 376.67 kPa): 0.00741 ± 4.5e-05 mPa·s | mass density (273.15 K, 420.03 kPa): 9.0207 ± 0.019 kg/m3 | viscosity (273.15 K, 420.03 kPa): 0.007406 ± 4.5e-05 mPa·s | mass density (273.15 K, 459.55 kPa): 9.9815 ± 0.021 kg/m3 | viscosity (273.15 K, 459.55 kPa): 0.007404 ± 4.5e-05 mPa·s | mass density (273.15 K, 459.58 kPa): 9.9822 ± 0.021 kg/m3 | viscosity (273.15 K, 459.58 kPa): 0.007403 ± 4.5e-05 mPa·s | mass density (298.15 K, 44.7 kPa): 0.80087 ± 0.0028 kg/m3 | viscosity (298.15 K, 44.7 kPa): 0.008128 ± 4.9e-05 mPa·s | mass density (298.15 K, 55.55 kPa): 0.99693 ± 0.003 kg/m3 | viscosity (298.15 K, 55.55 kPa): 0.008133 ± 4.9e-05 mPa·s | mass density (298.15 K, 110.39 kPa): 1.9989 ± 0.0048 kg/m3 | viscosity (298.15 K, 110.39 kPa): 0.00813 ± 4.9e-05 mPa·s | mass density (298.15 K, 164.09 kPa): 2.9981 ± 0.0067 kg/m3 | viscosity (298.15 K, 164.09 kPa): 0.008127 ± 4.9e-05 mPa·s | mass density (298.15 K, 164.66 kPa): 3.0089 ± 0.0067 kg/m3 | viscosity (298.15 K, 164.66 kPa): 0.008126 ± 4.9e-05 mPa·s | mass density (298.15 K, 217.05 kPa): 4.0022 ± 0.0087 kg/m3 | viscosity (298.15 K, 217.05 kPa): 0.008127 ± 4.9e-05 mPa·s | mass density (298.15 K, 217.09 kPa): 4.0029 ± 0.0087 kg/m3 | viscosity (298.15 K, 217.09 kPa): 0.008128 ± 4.9e-05 mPa·s | mass density (298.15 K, 268.78 kPa): 5.0013 ± 0.011 kg/m3 | viscosity (298.15 K, 268.78 kPa): 0.008125 ± 4.9e-05 mPa·s | mass density (298.15 K, 318.03 kPa): 5.9708 ± 0.013 kg/m3 | viscosity (298.15 K, 318.03 kPa): 0.008125 ± 4.9e-05 mPa·s | mass density (298.15 K, 369.4 kPa): 7.0017 ± 0.015 kg/m3 | viscosity (298.15 K, 369.4 kPa): 0.00813 ± 4.9e-05 mPa·s | mass density (298.15 K, 418.44 kPa): 8.0059 ± 0.017 kg/m3 | viscosity (298.15 K, 418.44 kPa): 0.008126 ± 4.9e-05 mPa·s | mass density (298.15 K, 464.73 kPa): 8.9725 ± 0.019 kg/m3 | viscosity (298.15 K, 464.73 kPa): 0.008128 ± 4.9e-05 mPa·s | mass density (298.15 K, 498.81 kPa): 9.6967 ± 0.021 kg/m3 | viscosity (298.15 K, 498.81 kPa): 0.008126 ± 4.9e-05 mPa·s | mass density (298.15 K, 513.59 kPa): 10.014 ± 0.021 kg/m3 | viscosity (298.15 K, 513.59 kPa): 0.008121 ± 4.9e-05 mPa·s | mass density (298.15 K, 559.93 kPa): 11.023 ± 0.023 kg/m3 | viscosity (298.15 K, 559.93 kPa): 0.008129 ± 4.9e-05 mPa·s | mass density (298.15 K, 600.75 kPa): 11.93 ± 0.025 kg/m3 | viscosity (298.15 K, 600.75 kPa): 0.008132 ± 4.9e-05 mPa·s | mass density (298.15 K, 604 kPa): 12.003 ± 0.025 kg/m3 | viscosity (298.15 K, 604 kPa): 0.008127 ± 4.9e-05 mPa·s | mass density (298.15 K, 646.36 kPa): 12.965 ± 0.027 kg/m3 | viscosity (298.15 K, 646.36 kPa): 0.008128 ± 4.9e-05 mPa·s and 0.00813 ± 4.9e-05 mPa·s | mass density (298.15 K, 691.04 kPa): 14.002 ± 0.03 kg/m3 | viscosity (298.15 K, 691.04 kPa): 0.008132 ± 4.9e-05 mPa·s | mass density (298.15 K, 692.19 kPa): 14.029 ± 0.03 kg/m3 | viscosity (298.15 K, 692.19 kPa): 0.008133 ± 4.9e-05 mPa·s | mass density (298.15 K, 783.49 kPa): 16.228 ± 0.034 kg/m3 | viscosity (298.15 K, 783.49 kPa): 0.008144 ± 4.9e-05 mPa·s | mass density (298.15 K, 849.03 kPa): 17.879 ± 0.038 kg/m3 | viscosity (298.15 K, 849.03 kPa): 0.00815 ± 4.9e-05 mPa·s | mass density (298.15 K, 875.16 kPa): 18.556 ± 0.039 kg/m3 | viscosity (298.15 K, 875.16 kPa): 0.008155 ± 4.9e-05 mPa·s | mass density (298.15 K, 878.68 kPa): 18.648 ± 0.04 kg/m3 | viscosity (298.15 K, 878.68 kPa): 0.008158 ± 4.9e-05 mPa·s | mass density (366.15 K, 68.97 kPa): 1.0047 ± 0.003 kg/m3 | viscosity (366.15 K, 68.97 kPa): 0.009907 ± 6e-05 mPa·s | mass density (366.15 K, 136.86 kPa): 2.0051 ± 0.0048 kg/m3 | viscosity (366.15 K, 136.86 kPa): 0.009923 ± 6e-05 mPa·s | mass density (366.15 K, 270.35 kPa): 4.0067 ± 0.0087 kg/m3 | viscosity (366.15 K, 270.35 kPa): 0.009941 ± 6e-05 mPa·s | mass density (366.15 K, 400.53 kPa): 6.0046 ± 0.013 kg/m3 | viscosity (366.15 K, 400.53 kPa): 0.009956 ± 6e-05 mPa·s | mass density (366.15 K, 527.04 kPa): 7.9924 ± 0.017 kg/m3 | viscosity (366.15 K, 527.04 kPa): 0.009974 ± 6e-05 mPa·s | mass density (366.15 K, 649.96 kPa): 9.9702 ± 0.021 kg/m3 | viscosity (366.15 K, 649.96 kPa): 0.009996 ± 6e-05 mPa·s | mass density (366.15 K, 772.49 kPa): 11.99 ± 0.025 kg/m3 | viscosity (366.15 K, 772.49 kPa): 0.01002 ± 6e-05 mPa·s | mass density (366.15 K, 897.82 kPa): 14.109 ± 0.03 kg/m3 | viscosity (366.15 K, 897.82 kPa): 0.01005 ± 6.1e-05 mPa·s | mass density (366.15 K, 1004.8 kPa): 15.963 ± 0.034 kg/m3 | viscosity (366.15 K, 1004.8 kPa): 0.01007 ± 6.1e-05 mPa·s | mass density (366.15 K, 1119.8 kPa): 18.006 ± 0.038 kg/m3 | viscosity (366.15 K, 1119.8 kPa): 0.0101 ± 6.1e-05 mPa·s | mass density (366.15 K, 1222.3 kPa): 19.872 ± 0.042 kg/m3 | viscosity (366.15 K, 1222.3 kPa): 0.01013 ± 6.1e-05 mPa·s | mass density (366.15 K, 1738.7 kPa): 30.044 ± 0.065 kg/m3 | viscosity (366.15 K, 1738.7 kPa): 0.01032 ± 6.2e-05 mPa·s | mass density (366.15 K, 2181.8 kPa): 40.086 ± 0.089 kg/m3
